According to the CheMixHub ionic liquid set:

Test: xn = mol fraction of the nth substance listed

CCCC[n+]1ccn(C)c1.[Br-] + N[C@@H](CO)C(=O)O + O
viscosity [mPa·s], 101.3 kPa
Conditions | 293.15 K | 298.15 K | 303.15 K | 308.15 K | 313.15 K
x2 = 0, x1 = 0.0007203 | – | – | – | – | 0.673
x2 = 0.0003632, x1 = 0.00072 | 1.028 | 0.917 | 0.824 | 0.747 | 0.681
x2 = 0.0003661, x1 = 0.001439 | 1.051 | 0.94 | 0.847 | 0.77 | 0.704
x2 = 0.0007261, x1 = 0.0007198 | 1.033 | 0.922 | 0.829 | 0.751 | 0.684
x2 = 0.0007318, x1 = 0.001438 | 1.056 | 0.945 | 0.852 | 0.773 | 0.707
x2 = 0.001089, x1 = 0.0007195 | 1.037 | 0.927 | 0.833 | 0.755 | 0.688
x2 = 0.001097, x1 = 0.001438 | 1.061 | 0.95 | 0.856 | 0.778 | 0.711
x2 = 0.001451, x1 = 0.0007192 | 1.043 | 0.931 | 0.838 | 0.759 | 0.693
x2 = 0.001463, x1 = 0.001437 | 1.067 | 0.954 | 0.861 | 0.782 | 0.716
x2 = 0.001808, x1 = 0.001437 | 1.072 | 0.959 | 0.865 | 0.787 | 0.72
x2 = 0.001813, x1 = 0.000719 | 1.047 | 0.936 | 0.842 | 0.764 | 0.697
x2 = 0.002175, x1 = 0.0007187 | 1.053 | 0.941 | 0.847 | 0.768 | 0.702
x2 = 0.002192, x1 = 0.001436 | 1.076 | 0.963 | 0.87 | 0.791 | 0.725
x2 = 0.002537, x1 = 0.0007185 | 1.057 | 0.946 | 0.851 | 0.773 | 0.706
x2 = 0.002557, x1 = 0.001436 | 1.082 | 0.968 | 0.874 | 0.796 | 0.729

CC[n+]1ccn(C)c1.[Cl-] + O=C[C@H](O)[C@@H](O)[C@H](O)[C@H](O)CO
373 K, 100 kPa
Conditions | viscosity [mPa·s]
x2 = 0 | 36
x2 = 0.0419 | 66

CCCCC[N+](CCCCC)(CCCCC)CCCCC.O=[N+]([O-])[O-] + CCCCCCCCCCCCOS(=O)(=O)[O-].[Na+] + O
viscosity [mPa·s], 100 kPa
Conditions | x2 = 1.81e-06, x1 = 0.0001802 | x2 = 3.62e-06, x1 = 0.0001802 | x2 = 5.42e-06, x1 = 0.0001802 | x2 = 7.23e-06, x1 = 0.0001802 | x2 = 9.04e-06, x1 = 0.0001802 | x2 = 1.085e-05, x1 = 0.0001802 | x2 = 1.266e-05, x1 = 0.0001802 | x2 = 1.447e-05, x1 = 0.0001802 | x2 = 1.627e-05, x1 = 0.0001802 | x2 = 1.808e-05, x1 = 0.0001802
293.15 K | 1.017 | 1.018 | 1.019 | 1.02 | 1.02 | 1.02 | 1.021 | 1.021 | 1.021 | 1.021
298.15 K | 0.903 | 0.905 | 0.906 | 0.907 | 0.907 | 0.908 | 0.908 | 0.908 | 0.909 | 0.909
303.15 K | 0.8 | 0.801 | 0.801 | 0.801 | 0.801 | 0.802 | 0.802 | 0.803 | 0.803 | 0.804
308.15 K | 0.713 | 0.713 | 0.713 | 0.713 | 0.714 | 0.714 | 0.715 | 0.716 | 0.716 | 0.716
313.15 K | 0.647 | 0.647 | 0.648 | 0.648 | 0.648 | 0.649 | 0.649 | 0.649 | 0.65 | 0.65
318.15 K | 0.601 | 0.601 | 0.601 | 0.601 | 0.602 | 0.602 | 0.602 | 0.602 | 0.603 | 0.603

CCCC[N+](CCCC)(CCCC)CCCC.[Cl-] + OC[C@@H](O)[C@@H](O)[C@H](O)[C@@H](O)CO + O
100 kPa, x1 = 0.1428, x2 = 0.1428
Conditions | electrical conductivity [S/m] | viscosity [mPa·s]
293.15 K | 0.121 | 390
303.15 K | 0.189 | 201
313.15 K | 0.285 | 107
323.15 K | 0.42 | 59.8
333.15 K | 0.605 | 34.5

Cc1ccc(S(=O)(=O)O)cc1 + C[N+](C)(C)Cc1ccccc1.[Cl-]
101 kPa, x2 = 0.3
Conditions | electrical conductivity [S/m] | viscosity [mPa·s]
292.97 K | – | 15200
298 K | – | 12900
302.95 K | – | 8733
307.99 K | – | 5078
308.2 K | 0.05721 | –
313.02 K | – | 2889
313.22 K | 0.08258 | –
317.95 K | – | 1701
318.31 K | 0.1275 | –
323.05 K | – | 1092
323.16 K | 0.187 | –
328.06 K | – | 791
328.17 K | 0.2562 | –
332.98 K | – | 452
333.27 K | 0.345 | –

CS(C)=O + CC(N)C(=O)[O-].COCCCCn1cc[n+](C)c1
Conditions | viscosity [mPa·s]
308.15 K, 100 kPa, x2 = 0 | 1.65

CCC(=O)[O-].C[N+](C)(C)CCO + CCCO + O
100 kPa, x1 = 0.00408, x2 = 0.5431
Conditions | viscosity [mPa·s]
288.15 K | 3.537
298.15 K | 2.571
308.15 K | 1.931

CS(C)=O + COCCCC[n+]1ccn(C)c1.NCC(=O)[O-]
Conditions | viscosity [mPa·s]
308.15 K, 100 kPa, x2 = 0 | 1.65

[Cl-].c1ccc(C[P+](c2ccccc2)(c2ccccc2)c2ccccc2)cc1 + OCCO
Conditions | electrical conductivity [S/m] | viscosity [mPa·s]
293.15 K, 101 kPa, x1 = 0.083 | 0.191 | 60.6
303.15 K, 101 kPa, x1 = 0.08333 | – | 68.3
313.15 K, 101 kPa, x1 = 0.083 | 0.298 | 32.2
313.15 K, 101 kPa, x1 = 0.08333 | – | 54.2
323.15 K, 100 kPa, x1 = 0.0833 | – | 38.5
323.15 K, 101 kPa, x1 = 0.08333 | – | 41.8
333.15 K, 101 kPa, x1 = 0.08333 | – | 33
338.15 K, 101.3 kPa, x2 = 0.75 | 0.02 | 86
343.15 K, 100 kPa, x1 = 0.0833 | – | 24.6
343.15 K, 101 kPa, x1 = 0.08333 | – | 24.2
353.15 K, 101 kPa, x1 = 0.08333 | – | 20.7

CC(C)C[C@H](NC(=O)CN)C(=O)O + CCCCCCCCCCCC[N+](C)(C)Cc1ccccc1.[Cl-] + O
electrical conductivity [S/m], 101 kPa
Conditions | 293.15 K | 298.15 K | 303.15 K | 308.15 K | 313.15 K
x1 = 0.0009002, x2 = 0 | 0.00295 | 0.00335 | 0.0038 | 0.00435 | 0.00495
x1 = 0.001793, x2 = 0 | 0.00449 | 0.00524 | 0.00608 | 0.00702 | 0.00811
